In ChEMBL document CHEMBL1151757, “Synthesis, radiosynthesis, and biological evaluation of fluorine-18-labeled 2beta-carbo(fluoroalkoxy)-3beta-(3'-((Z)-2-haloethenyl)phenyl)nortropanes: candidate radioligands for in vivo imaging of the serotonin transporter with positron emission tomography” (J Med Chem, 2008):

Legend:
[1] = Ratio of drug uptake in caudate to cerebellum in anesthetized cynomolgus monkey after 18.5 mins postinjection; format: ADME, organism-based, Macaca fascicularis; settings: in vivo
Putamen [2] = experiment: Drug uptake in anesthetized cynomolgus monkey brain putamen after 225 mins postinjection; format: ADME, organism-based, Macaca fascicularis; settings: in vivo, 3.75 h
Medulla [3] = experiment: Drug uptake in anesthetized cynomolgus monkey brain medulla after 27.5 mins postinjection; format: ADME, organism-based, Macaca fascicularis; settings: in vivo
[4] = Drug uptake in anesthetized cynomolgus monkey brain cerebellum after 9.5 mins postinjection; format: ADME, organism-based, Macaca fascicularis; settings: in vivo
[5] = Ratio of drug uptake in medulla to cerebellum in anesthetized cynomolgus monkey after 165 mins postinjection; format: ADME, organism-based, Macaca fascicularis; settings: in vivo, 2.75 h
[6] = Ratio of drug uptake in frontal lobe to cerebellum in anesthetized cynomolgus monkey after 145 mins postinjection; format: ADME, organism-based, Macaca fascicularis; settings: in vivo
Thalamus [7] = experiment: Drug uptake in anesthetized cynomolgus monkey brain thalamus after 115 mins postinjection; format: ADME, organism-based, Macaca fascicularis; design: unit not given here; settings: in vivo
Caudate [8] = experiment: Drug uptake in anesthetized cynomolgus monkey brain caudate after 65 mins postinjection; format: ADME, organism-based, Macaca fascicularis, Caudate nucleus; settings: in vivo
Putamen [9] = experiment: Drug uptake in anesthetized cynomolgus monkey brain putamen after 95 mins postinjection; format: ADME, organism-based, Macaca fascicularis; design: unit not given here; settings: in vivo
Putamen [10] = experiment: Drug uptake in anesthetized cynomolgus monkey brain putamen after 6.5 mins postinjection; format: ADME, organism-based, Macaca fascicularis; design: unit not given here; settings: in vivo
Medulla [11] = experiment: Drug uptake in anesthetized cynomolgus monkey brain medulla after 4.5 mins postinjection; format: ADME, organism-based, Macaca fascicularis; settings: in vivo, 0.075 h
Pons [12] = experiment: Drug uptake in anesthetized cynomolgus monkey brain pons after 225 mins postinjection; format: ADME, organism-based, Macaca fascicularis; settings: in vivo, 3.75 h
[13] = Drug uptake in anesthetized cynomolgus monkey brain cerebellum after 85 mins postinjection; format: ADME, organism-based, Macaca fascicularis; settings: in vivo
[14] = Drug uptake in anesthetized cynomolgus monkey brain occipital lobe after 45 mins postinjection; format: ADME, organism-based, Macaca fascicularis; settings: in vivo, 0.75 h
Medulla [15] = experiment: Drug uptake in anesthetized cynomolgus monkey brain medulla after 2.5 mins postinjection; format: ADME, organism-based, Macaca fascicularis; settings: in vivo
Caudate [16] = experiment: Drug uptake in anesthetized cynomolgus monkey brain caudate after 145 mins postinjection; format: ADME, organism-based, Macaca fascicularis, Caudate nucleus; settings: in vivo
[17] = Drug uptake in anesthetized cynomolgus monkey brain cerebellum after 27.5 mins postinjection; format: ADME, organism-based, Macaca fascicularis; settings: in vivo
Thalamus [18] = experiment: Drug uptake in anesthetized cynomolgus monkey brain thalamus after 12.5 mins postinjection; format: ADME, organism-based, Macaca fascicularis; design: unit not given here; settings: in vivo
Caudate [19] = experiment: Drug uptake in anesthetized cynomolgus monkey brain caudate after 215 mins postinjection; format: ADME, organism-based, Macaca fascicularis, Caudate nucleus; settings: in vivo
[20] = Drug uptake in anesthetized cynomolgus monkey brain frontal lobe after 0.5 mins postinjection; format: ADME, organism-based, Macaca fascicularis; settings: in vivo
Medulla [21] = experiment: Drug uptake in anesthetized cynomolgus monkey brain medulla after 1.5 mins postinjection; format: ADME, organism-based, Macaca fascicularis; settings: in vivo, 0.025 h
Caudate [22] = experiment: Drug uptake in anesthetized cynomolgus monkey brain caudate after 85 mins postinjection; format: ADME, organism-based, Macaca fascicularis, Caudate nucleus; settings: in vivo
[23] = Drug uptake in anesthetized cynomolgus monkey brain occipital lobe after 4.5 mins postinjection; format: ADME, organism-based, Macaca fascicularis; settings: in vivo, 0.075 h
[24] = Ratio of drug uptake in caudate to cerebellum in anesthetized cynomolgus monkey after 9.5 mins postinjection; format: ADME, organism-based, Macaca fascicularis; settings: in vivo
Caudate [25] = experiment: Drug uptake in anesthetized cynomolgus monkey brain caudate after 22.5 mins postinjection; format: ADME, organism-based, Macaca fascicularis, Caudate nucleus; settings: in vivo, 0.375 h
Midbrain [26] = experiment: Drug uptake in anesthetized cynomolgus monkey brain midbrain after 27.5 mins postinjection; format: ADME, organism-based, Macaca fascicularis; design: unit not given here; settings: in vivo
Thalamus [27] = experiment: Drug uptake in anesthetized cynomolgus monkey brain thalamus after 105 mins postinjection; format: ADME, organism-based, Macaca fascicularis; design: unit not given here; settings: in vivo, 1.75 h
[28] = Drug uptake in anesthetized cynomolgus monkey brain frontal lobe after 175 mins postinjection; format: ADME, organism-based, Macaca fascicularis; settings: in vivo
Pons [29] = experiment: Drug uptake in anesthetized cynomolgus monkey brain pons after 105 mins postinjection; format: ADME, organism-based, Macaca fascicularis; settings: in vivo, 1.75 h
Medulla [30] = experiment: Drug uptake in anesthetized cynomolgus monkey brain medulla after 0.5 mins postinjection; format: ADME, organism-based, Macaca fascicularis; settings: in vivo
[31] = Ratio of drug uptake in thalamus to cerebellum in anesthetized cynomolgus monkey after 9.5 mins postinjection; format: ADME, organism-based, Macaca fascicularis; settings: in vivo
[32] = Drug uptake in anesthetized cynomolgus monkey brain occipital lobe after 155 mins postinjection; format: ADME, organism-based, Macaca fascicularis; settings: in vivo
[33] = Ratio of drug uptake in occipital lobe to cerebellum in anesthetized cynomolgus monkey after 135 mins postinjection; format: ADME, organism-based, Macaca fascicularis; settings: in vivo, 2.25 h
Midbrain [34] = experiment: Drug uptake in anesthetized cynomolgus monkey brain midbrain after 225 mins postinjection; format: ADME, organism-based, Macaca fascicularis; settings: in vivo, 3.75 h
Midbrain [35] = experiment: Drug uptake in anesthetized cynomolgus monkey brain midbrain after 1.5 mins postinjection; format: ADME, organism-based, Macaca fascicularis; design: unit not given here; settings: in vivo, 0.025 h
[36] = Ratio of drug uptake in medulla to cerebellum in anesthetized cynomolgus monkey after 155 mins postinjection; format: ADME, organism-based, Macaca fascicularis; settings: in vivo
[37] = Ratio of drug uptake in caudate to cerebellum in anesthetized cynomolgus monkey after 135 mins postinjection; format: ADME, organism-based, Macaca fascicularis; settings: in vivo, 2.25 h
[38] = Drug uptake in anesthetized cynomolgus monkey brain frontal lobe after 65 mins postinjection; format: ADME, organism-based, Macaca fascicularis; settings: in vivo
Medulla [39] = experiment: Drug uptake in anesthetized cynomolgus monkey brain medulla after 3.5 mins postinjection; format: ADME, organism-based, Macaca fascicularis; settings: in vivo
[40] = Ratio of drug uptake in pons to cerebellum in anesthetized cynomolgus monkey after 18.5 mins postinjection; format: ADME, organism-based, Macaca fascicularis; settings: in vivo
Medulla [41] = experiment: Drug uptake in anesthetized cynomolgus monkey brain medulla after 165 mins postinjection; format: ADME, organism-based, Macaca fascicularis; settings: in vivo, 2.75 h
Putamen [42] = experiment: Drug uptake in anesthetized cynomolgus monkey brain putamen after 27.5 mins postinjection; format: ADME, organism-based, Macaca fascicularis; design: unit not given here; settings: in vivo
Midbrain [43] = experiment: Drug uptake in anesthetized cynomolgus monkey brain midbrain after 155 mins postinjection; format: ADME, organism-based, Macaca fascicularis; settings: in vivo
[44] = Ratio of drug uptake in midbrain to cerebellum in anesthetized cynomolgus monkey after 18.5 mins postinjection; format: ADME, organism-based, Macaca fascicularis; settings: in vivo
Caudate [45] = experiment: Drug uptake in anesthetized cynomolgus monkey brain caudate after 135 mins postinjection; format: ADME, organism-based, Macaca fascicularis, Caudate nucleus; settings: in vivo, 2.25 h
Medulla [46] = experiment: Drug uptake in anesthetized cynomolgus monkey brain medulla after 175 mins postinjection; format: ADME, organism-based, Macaca fascicularis; settings: in vivo
Pons [47] = experiment: Drug uptake in anesthetized cynomolgus monkey brain pons after 235 mins postinjection; format: ADME, organism-based, Macaca fascicularis; settings: in vivo
[48] = Drug uptake in anesthetized cynomolgus monkey brain frontal lobe after 2.5 mins postinjection; format: ADME, organism-based, Macaca fascicularis; settings: in vivo
[49] = Drug uptake in anesthetized cynomolgus monkey brain frontal lobe after 95 mins postinjection; format: ADME, organism-based, Macaca fascicularis; settings: in vivo
Caudate [50] = experiment: Drug uptake in anesthetized cynomolgus monkey brain caudate after 115 mins postinjection; format: ADME, organism-based, Macaca fascicularis, Caudate nucleus; settings: in vivo
Caudate [51] = experiment: Drug uptake in anesthetized cynomolgus monkey brain caudate after 105 mins postinjection; format: ADME, organism-based, Macaca fascicularis, Caudate nucleus; settings: in vivo, 1.75 h
[52] = Ratio of drug uptake in midbrain to cerebellum in anesthetized cynomolgus monkey after 2.5 mins postinjection; format: ADME, organism-based, Macaca fascicularis; settings: in vivo
Midbrain [53] = experiment: Drug uptake in anesthetized cynomolgus monkey brain midbrain after 12.5 mins postinjection; format: ADME, organism-based, Macaca fascicularis; design: unit not given here; settings: in vivo
Midbrain [54] = experiment: Drug uptake in anesthetized cynomolgus monkey brain midbrain after 9.5 mins postinjection; format: ADME, organism-based, Macaca fascicularis; design: unit not given here; settings: in vivo
[55] = Ratio of drug uptake in thalamus to cerebellum in anesthetized cynomolgus monkey after 135 mins postinjection; format: ADME, organism-based, Macaca fascicularis; settings: in vivo, 2.25 h
[56] = Drug uptake in anesthetized cynomolgus monkey brain frontal lobe after 125 mins postinjection; format: ADME, organism-based, Macaca fascicularis; settings: in vivo
[57] = Drug uptake in anesthetized cynomolgus monkey brain occipital lobe after 3.5 mins postinjection; format: ADME, organism-based, Macaca fascicularis; settings: in vivo
Pons [58] = experiment: Drug uptake in anesthetized cynomolgus monkey brain pons after 6.5 mins postinjection; format: ADME, organism-based, Macaca fascicularis; settings: in vivo
[59] = Drug uptake in anesthetized cynomolgus monkey brain frontal lobe after 145 mins postinjection; format: ADME, organism-based, Macaca fascicularis; settings: in vivo
[60] = Ratio of drug uptake in putamen to cerebellum in anesthetized cynomolgus monkey after 235 mins postinjection; format: ADME, organism-based, Macaca fascicularis; settings: in vivo

O=C(OCCC[18F])C1C2CCC(CC1c1cccc(/C=C\Br)c1)N2 (stereo not given)
Ratio [1]: 0.7
Drug uptake (Putamen [2]): 3.51
Drug uptake (Medulla [3]): 6.12
Drug uptake [4]: 5.92
Ratio [5]: 1.7
Ratio [6]: 1
Drug uptake (Thalamus [7]): 4.82
Drug uptake (Caudate [8]): 5.22
Drug uptake (Putamen [9]): 5.28
Drug uptake (Putamen [10]): 4.42
Drug uptake (Medulla [11]): 3.95
Drug uptake (Pons [12]): 3.21
Drug uptake [13]: 3.83
Drug uptake [14]: 4.61
Drug uptake (Medulla [15]): 1.62
Drug uptake (Caudate [16]): 4.38
Drug uptake [17]: 5.61
Drug uptake (Thalamus [18]): 4.31
Drug uptake (Caudate [19]): 3.62
Drug uptake [20]: 0.01
Drug uptake (Medulla [21]): 0.42
Drug uptake (Caudate [22]): 5.23
Drug uptake [23]: 2.44
Ratio [24]: 0.7
Drug uptake (Caudate [25]): 4.63
Drug uptake (Midbrain [26]): 6.06
Drug uptake (Thalamus [27]): 5.06
Drug uptake [28]: 2.51
Drug uptake (Pons [29]): 4.38
Drug uptake (Medulla [30]): 0.02
Ratio [31]: 0.7
Drug uptake [32]: 3.27
Ratio [33]: 1.2
Drug uptake (Midbrain [34]): 4.29
Drug uptake (Midbrain [35]): 0.48
Ratio [36]: 1.7
Ratio [37]: 1.5
Drug uptake [38]: 3.69
Drug uptake (Medulla [39]): 2.91
Ratio [40]: 0.7
Drug uptake (Medulla [41]): 4.42
Drug uptake (Putamen [42]): 5.95
Drug uptake (Midbrain [43]): 5.23
Ratio [44]: 0.9
Drug uptake (Caudate [45]): 4.43
Drug uptake (Medulla [46]): 4.26
Drug uptake (Pons [47]): 3.26
Drug uptake [48]: 0.79
Drug uptake [49]: 3.31
Drug uptake (Caudate [50]): 4.71
Drug uptake (Caudate [51]): 4.9
Ratio [52]: 1
Drug uptake (Midbrain [53]): 5.24
Drug uptake (Midbrain [54]): 5.04
Ratio [55]: 1.6
Drug uptake [56]: 2.93
Drug uptake [57]: 1.51
Drug uptake (Pons [58]): 3.6
Drug uptake [59]: 2.85
Ratio [60]: 1.7
